Data taken from patent US20230148005A1, “MACROCYCLIC COMPOUNDS AND USES THEREOF” (THESEUS PHARMACEUTICALS, INC., priority 2020, published 2023).
pIC50: −log10 of the molar value.

How the values were obtained:
Ba/F3 EGFR-Del19/T790M = Ba/F3 EGFR-Del19/T790M (Homo sapiens, UniProt P00533, T790M, cells depend on it, form not given); assay: Ba/F3 viability assay (CellTiter-Glo), DT; format: cell-based; conditions: anti-proliferation, read-out: BaF3 DT IC50
Summary of the method: (§1)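 Read-out: viability signal, used as the measure of proliferation inhibition by test compounds.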

EGFR^L858R = EGFR^L858R (Homo sapiens, UniProt P00533, L858R); assay: in vitro kinase assay (HTRF KinEASE-TK kit), L; format: biochemical; conditions: kinase inhibition
Chain of EGFR^L858R (P00533 25-1210 L858R): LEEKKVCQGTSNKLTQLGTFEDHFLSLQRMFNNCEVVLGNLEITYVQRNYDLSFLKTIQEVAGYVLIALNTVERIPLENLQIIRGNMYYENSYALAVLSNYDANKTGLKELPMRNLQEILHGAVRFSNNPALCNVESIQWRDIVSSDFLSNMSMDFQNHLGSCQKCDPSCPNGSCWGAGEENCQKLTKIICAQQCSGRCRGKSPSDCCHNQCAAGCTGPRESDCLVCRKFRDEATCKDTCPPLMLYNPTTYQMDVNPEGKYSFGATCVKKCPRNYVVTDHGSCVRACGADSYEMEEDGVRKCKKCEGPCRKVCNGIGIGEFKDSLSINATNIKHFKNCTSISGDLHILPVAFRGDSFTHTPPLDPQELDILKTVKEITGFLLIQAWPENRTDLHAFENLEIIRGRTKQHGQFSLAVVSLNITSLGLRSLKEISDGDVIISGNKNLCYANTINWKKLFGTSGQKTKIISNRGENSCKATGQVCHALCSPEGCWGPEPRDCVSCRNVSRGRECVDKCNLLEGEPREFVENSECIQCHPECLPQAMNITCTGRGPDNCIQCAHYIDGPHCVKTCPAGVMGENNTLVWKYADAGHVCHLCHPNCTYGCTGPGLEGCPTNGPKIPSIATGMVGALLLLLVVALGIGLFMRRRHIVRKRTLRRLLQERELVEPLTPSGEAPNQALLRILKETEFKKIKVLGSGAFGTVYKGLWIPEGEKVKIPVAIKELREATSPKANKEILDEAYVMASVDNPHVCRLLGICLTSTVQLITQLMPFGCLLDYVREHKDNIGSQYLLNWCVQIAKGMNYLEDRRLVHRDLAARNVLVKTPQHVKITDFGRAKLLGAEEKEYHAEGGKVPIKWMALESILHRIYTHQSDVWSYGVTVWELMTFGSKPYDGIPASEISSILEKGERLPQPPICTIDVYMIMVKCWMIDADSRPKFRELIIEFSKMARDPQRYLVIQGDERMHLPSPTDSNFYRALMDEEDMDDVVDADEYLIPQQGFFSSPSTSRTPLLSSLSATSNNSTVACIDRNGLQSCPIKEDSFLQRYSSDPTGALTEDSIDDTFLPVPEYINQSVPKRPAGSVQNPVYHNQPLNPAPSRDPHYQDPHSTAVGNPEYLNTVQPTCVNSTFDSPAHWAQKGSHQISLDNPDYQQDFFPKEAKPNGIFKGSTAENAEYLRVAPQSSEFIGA
Source text: (§2) Assays using an in vitro kinase assay kit (HTRF KinEASE-TK kit) can be used to study the inhibitory activity of compounds described herein with respect to EGFR mutants such as EGFR^L858R, EGFR^L58R/T790M, and EGFR^L858R/T790M/C^797S.

Ba/F3 EGFR-Del19/C797S = Ba/F3 EGFR-Del19/C797S (Homo sapiens, UniProt P00533, C797S, cells depend on it, form not given); assay: Ba/F3 viability assay (CellTiter-Glo), DC; format: cell-based; conditions: anti-proliferation, read-out: BaF3 DC IC50
Chain of Ba/F3 EGFR-Del19/C797S (P00533 with tags, fused parts or gaps DEL746-750/C797S, form open): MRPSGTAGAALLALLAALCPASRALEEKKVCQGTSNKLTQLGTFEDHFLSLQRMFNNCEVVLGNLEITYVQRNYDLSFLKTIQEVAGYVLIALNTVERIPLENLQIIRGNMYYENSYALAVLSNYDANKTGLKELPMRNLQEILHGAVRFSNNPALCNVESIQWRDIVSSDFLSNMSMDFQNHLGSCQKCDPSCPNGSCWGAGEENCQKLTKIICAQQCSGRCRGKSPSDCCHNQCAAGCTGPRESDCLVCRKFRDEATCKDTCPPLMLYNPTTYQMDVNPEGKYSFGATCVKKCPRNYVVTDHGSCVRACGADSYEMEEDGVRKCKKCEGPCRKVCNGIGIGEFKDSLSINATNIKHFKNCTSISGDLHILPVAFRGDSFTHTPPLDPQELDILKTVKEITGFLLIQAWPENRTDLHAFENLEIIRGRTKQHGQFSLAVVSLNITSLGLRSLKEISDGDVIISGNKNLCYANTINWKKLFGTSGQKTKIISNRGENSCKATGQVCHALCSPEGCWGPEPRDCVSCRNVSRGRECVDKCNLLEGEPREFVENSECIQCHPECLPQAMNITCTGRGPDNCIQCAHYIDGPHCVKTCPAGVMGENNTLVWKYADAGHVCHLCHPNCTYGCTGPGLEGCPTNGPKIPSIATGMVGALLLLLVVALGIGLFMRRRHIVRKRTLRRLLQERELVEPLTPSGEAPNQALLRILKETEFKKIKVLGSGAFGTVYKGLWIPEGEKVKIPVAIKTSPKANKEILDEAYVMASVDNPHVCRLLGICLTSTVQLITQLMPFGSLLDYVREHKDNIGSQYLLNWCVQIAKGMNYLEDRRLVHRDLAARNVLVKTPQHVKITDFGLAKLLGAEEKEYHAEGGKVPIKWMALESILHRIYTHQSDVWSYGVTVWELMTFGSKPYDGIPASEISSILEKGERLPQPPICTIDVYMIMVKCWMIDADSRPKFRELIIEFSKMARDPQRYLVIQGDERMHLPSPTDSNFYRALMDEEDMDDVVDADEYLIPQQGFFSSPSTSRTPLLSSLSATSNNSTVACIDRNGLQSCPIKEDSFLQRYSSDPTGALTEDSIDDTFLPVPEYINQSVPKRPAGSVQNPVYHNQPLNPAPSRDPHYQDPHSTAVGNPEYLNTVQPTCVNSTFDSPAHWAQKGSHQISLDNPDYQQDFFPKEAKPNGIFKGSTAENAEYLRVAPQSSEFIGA
Summary of the method: as §1

EGFR^L58R/T790M = EGFR^L58R/T790M (Homo sapiens, UniProt P00533, L858R/T790M); assay: in vitro kinase assay (HTRF KinEASE-TK kit), LT; format: biochemical; conditions: kinase inhibition
Source text: as §2

EGFR^L858R/T790M/C^797S = EGFR^L858R/T790M/C^797S (Homo sapiens, UniProt P00533, C797S/L858R/T790M); assay: in vitro kinase assay (HTRF KinEASE-TK kit), LTC; format: biochemical; conditions: kinase inhibition
Chain of EGFR^L858R/T790M/C^797S (P00533 25-1210 T790M/C797S/L858R): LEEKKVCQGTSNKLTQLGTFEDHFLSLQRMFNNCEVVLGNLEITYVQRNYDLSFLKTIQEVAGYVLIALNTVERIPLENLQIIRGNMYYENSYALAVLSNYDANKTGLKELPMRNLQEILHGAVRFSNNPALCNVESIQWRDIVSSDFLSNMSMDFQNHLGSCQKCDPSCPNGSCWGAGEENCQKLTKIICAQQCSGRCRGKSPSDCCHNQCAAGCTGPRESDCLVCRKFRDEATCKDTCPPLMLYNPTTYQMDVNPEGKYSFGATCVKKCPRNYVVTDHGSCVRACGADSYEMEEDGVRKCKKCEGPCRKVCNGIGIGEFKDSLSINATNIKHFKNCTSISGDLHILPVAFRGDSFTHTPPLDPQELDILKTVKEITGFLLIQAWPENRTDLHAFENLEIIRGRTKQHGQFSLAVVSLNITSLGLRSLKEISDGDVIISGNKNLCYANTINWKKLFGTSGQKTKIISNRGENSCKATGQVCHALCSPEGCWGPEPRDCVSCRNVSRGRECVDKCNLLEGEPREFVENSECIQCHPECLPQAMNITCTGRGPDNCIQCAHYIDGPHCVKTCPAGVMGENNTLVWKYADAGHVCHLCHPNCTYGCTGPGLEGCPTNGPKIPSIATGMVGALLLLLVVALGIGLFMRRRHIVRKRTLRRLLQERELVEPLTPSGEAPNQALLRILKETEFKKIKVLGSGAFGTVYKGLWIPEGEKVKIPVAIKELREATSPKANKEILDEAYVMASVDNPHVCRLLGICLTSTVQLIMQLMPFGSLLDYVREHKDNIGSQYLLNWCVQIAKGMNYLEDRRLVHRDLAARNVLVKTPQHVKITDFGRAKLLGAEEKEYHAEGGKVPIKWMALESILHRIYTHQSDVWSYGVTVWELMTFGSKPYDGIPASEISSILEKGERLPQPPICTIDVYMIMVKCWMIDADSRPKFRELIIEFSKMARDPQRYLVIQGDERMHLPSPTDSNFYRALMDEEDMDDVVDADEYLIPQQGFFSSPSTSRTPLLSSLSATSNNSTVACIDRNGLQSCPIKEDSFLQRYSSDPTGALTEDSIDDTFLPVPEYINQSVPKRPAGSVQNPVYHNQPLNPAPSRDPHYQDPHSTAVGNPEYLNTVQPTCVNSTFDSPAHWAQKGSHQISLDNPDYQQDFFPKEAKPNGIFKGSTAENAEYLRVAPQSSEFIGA
Source text: as §2

[1] = target: Ba/F3 EGFR-Del19/T790M/C797S (Homo sapiens, UniProt P00533, T790M/C797S, cells depend on it, form not given); assay: Ba/F3 viability assay (CellTiter-Glo), DTC; format: cell-based; conditions: anti-proliferation, read-out: BaF3 DTC IC50
Chain of Ba/F3 EGFR-Del19/T790M/C797S (P00533 with tags, fused parts or gaps DEL746-750/T790M/C797S, form open): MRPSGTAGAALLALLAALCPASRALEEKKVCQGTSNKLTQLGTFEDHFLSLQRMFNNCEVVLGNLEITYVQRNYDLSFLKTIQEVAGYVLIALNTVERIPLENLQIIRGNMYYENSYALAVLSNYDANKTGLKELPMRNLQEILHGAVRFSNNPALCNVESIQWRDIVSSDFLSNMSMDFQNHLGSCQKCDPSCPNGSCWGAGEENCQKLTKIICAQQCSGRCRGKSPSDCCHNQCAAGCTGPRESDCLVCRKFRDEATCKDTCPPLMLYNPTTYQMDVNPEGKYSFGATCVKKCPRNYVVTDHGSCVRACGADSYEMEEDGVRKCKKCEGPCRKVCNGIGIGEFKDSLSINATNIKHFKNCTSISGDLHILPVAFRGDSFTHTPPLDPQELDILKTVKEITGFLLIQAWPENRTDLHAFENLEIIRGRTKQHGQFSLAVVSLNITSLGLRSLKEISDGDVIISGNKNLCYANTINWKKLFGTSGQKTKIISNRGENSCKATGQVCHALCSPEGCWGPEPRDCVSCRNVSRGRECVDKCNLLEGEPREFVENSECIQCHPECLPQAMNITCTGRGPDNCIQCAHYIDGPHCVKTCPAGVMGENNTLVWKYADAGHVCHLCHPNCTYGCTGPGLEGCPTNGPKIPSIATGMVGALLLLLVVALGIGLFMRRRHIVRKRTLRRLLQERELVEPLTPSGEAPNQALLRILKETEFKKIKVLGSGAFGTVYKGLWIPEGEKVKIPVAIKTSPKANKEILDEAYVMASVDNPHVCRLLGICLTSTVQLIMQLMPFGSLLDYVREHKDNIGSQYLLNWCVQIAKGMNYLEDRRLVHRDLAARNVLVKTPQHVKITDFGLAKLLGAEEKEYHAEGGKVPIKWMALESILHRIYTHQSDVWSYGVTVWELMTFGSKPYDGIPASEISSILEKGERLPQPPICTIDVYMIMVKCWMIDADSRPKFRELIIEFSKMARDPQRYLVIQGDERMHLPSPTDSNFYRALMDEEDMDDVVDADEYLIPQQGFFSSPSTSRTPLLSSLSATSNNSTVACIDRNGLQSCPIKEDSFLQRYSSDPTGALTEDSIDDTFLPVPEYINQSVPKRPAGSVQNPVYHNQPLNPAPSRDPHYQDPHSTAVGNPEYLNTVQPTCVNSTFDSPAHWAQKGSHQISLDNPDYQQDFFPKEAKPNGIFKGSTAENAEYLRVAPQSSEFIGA
Summary of the method: as §1

Ba/F3 Parental = assay: Ba/F3 viability assay (CellTiter-Glo), parental; format: cell-based; conditions: Mus musculus, BaF3, anti-proliferation
Summary of the method: as §1

| Structure (SMILES) | GI50 (Ba/F3 EGFR-Del19/T790M) | pIC50 (EGFR^L858R) | GI50 (Ba/F3 EGFR-Del19/C797S) | pIC50 (EGFR^L58R/T790M) | pIC50 (EGFR^L858R/T790M/C^797S) | GI50 [1] | pIC50 (Ba/F3 Parental) |
| --- | --- | --- | --- | --- | --- | --- | --- |
| C[C@H]1CCOc2c(cnn2C)-c2nccc(n2)Nc2cc3c(cn2)c(-c2ccc(CN4CCN(C)CC4)n2C)nn31 [(101), (16S)-11,16-dimethyl-19-[1-methyl-5-[(4-methylpiperazin-1-yl)methyl]pyrrol-2-yl]-13-oxa-2,6,10,11,17,18,22,25-octazapentacyclo[15.5.2.13,7.08,12.020,24]pentacosa-1(22),3,5,7(25),8(12),9,18,20,23-nonaene] | < 10 nM | > 8.00 | < 10 nM | > 8.00 | > 8.00 | < 10 nM | 6.00 to 7.00 |
| CCCn1cc(-c2nn3c4cc(ncc24)Nc2ccnc(n2)-c2cnn(C)c2OCC[C@@H]3C)cc1CN1CCOCC1 [(152)] | < 10 nM | > 8.00 | < 10 nM | > 8.00 | > 8.00 | < 10 nM | 6.00 to 7.00 |
| CN1CCN(CC2CCCN2c2nn3c4cc(ncc24)Nc2ccnc(n2)-c2cnn(C)c2OCCC3)CC1 (stereo not shown) [(10)] | 100 to 1000 nM | 6.00 to 7.00 | 100 to 1000 nM | > 8.00 | > 8.00 | 100 to 1000 nM | 6.00 to 7.00 |
| CCn1cc(-c2nn3c4cc(ncc24)Nc2ccnc(n2)-c2cnn(C)c2OCC[C@@H]3C)cc1CN1CCN(C)CC1 [(146)] | < 10 nM | > 8.00 | < 10 nM | > 8.00 | > 8.00 | < 10 nM | 6.00 to 7.00 |
| CCn1c(CN(C)C)ccc1-c1nn2c3cc(ncc13)Nc1ccnc(n1)-c1cnn(C)c1OCC[C@@H]2C [(191)] | 10 to 100 nM | > 8.00 | < 10 nM | > 8.00 | > 8.00 | < 10 nM | 6.00 to 7.00 |
| C[C@H]1CCOc2c(cnn2C)-c2nccc(n2)Nc2cc3c(cn2)c(N2CC[C@@H](O)C2)nn31 [(112)] | < 10 nM | > 8.00 | 10 to 100 nM | > 8.00 | > 8.00 | < 10 nM | 6.00 to 7.00 |
| C[C@H]1CCOc2c(cnn2C)-c2nccc(n2)Nc2cc3c(cn2)c(-c2ncc(CN4CCOCC4)s2)nn31 [(143)] | 10 to 100 nM | 7.00 to 8.00 | 10 to 100 nM | > 8.00 | > 8.00 | 10 to 100 nM | ≤ 6.00 |
| C[C@H]1CCOc2c(cnn2C)-c2nccc(n2)Nc2cc3c(cn2)c(-c2cc(OCCN(C)C)ccc2F)nn31 [(130)] | 10 to 100 nM | 7.00 to 8.00 | 10 to 100 nM | > 8.00 | > 8.00 | 10 to 100 nM | ≤ 6.00 |
| CCn1cc(-c2nn3c4cc(ncc24)Nc2ccnc(n2)-c2cnn(C)c2OCC[C@@H]3C)cc1CN(C)C [(156)] | < 10 nM | > 8.00 | < 10 nM | > 8.00 | > 8.00 | < 10 nM | 6.00 to 7.00 |
| C[C@H]1CCOc2c(cnn2C)-c2nccc(n2)Nc2cc3c(cn2)c(-c2cccc(N4CC[C@H](N(C)C)C4)c2)nn31 [(167)] | < 10 nM | > 8.00 | < 10 nM | > 8.00 | > 8.00 | < 10 nM | 6.00 to 7.00 |
| C[C@H]1CCOc2c(cnn2C)-c2nccc(n2)Nc2cc3c(cn2)c(-c2ccc(CN4CCN(CCF)CC4)n2C)nn31 [(193)] | < 10 nM | > 8.00 | < 10 nM | > 8.00 | > 8.00 | < 10 nM | 6.00 to 7.00 |
| C[C@H]1CCOc2c(cnn2C)-c2nccc(n2)Nc2cc3c(cn2)c(N2CCOCC2)nn31 [(104)] | 10 to 100 nM | 7.00 to 8.00 | 10 to 100 nM | > 8.00 | > 8.00 | 10 to 100 nM | 6.00 to 7.00 |
| CCN(CC)CCN(C)c1cc(F)cc(-c2nn3c4cc(ncc24)Nc2ccnc(n2)-c2cnn(C)c2OCC[C@@H]3C)c1 [(132)] | 10 to 100 nM | 7.00 to 8.00 | 10 to 100 nM | > 8.00 | > 8.00 | 10 to 100 nM | 6.00 to 7.00 |
| C[C@H]1CCOc2c(cnn2C)-c2nccc(n2)Nc2cc3c(cn2)c(-c2cnn(CCN4CCOCC4)c2)nn31 [(116)] | 10 to 100 nM | 7.00 to 8.00 | 10 to 100 nM | > 8.00 | > 8.00 | 10 to 100 nM | 6.00 to 7.00 |
| C[C@H]1CCOc2c(cnn2C)-c2nccc(n2)Nc2cc3c(cn2)c(N2CC[C@H](N(C)CCCF)C2)nn31 [(180)] | 10 to 100 nM | 7.00 to 8.00 | 10 to 100 nM | > 8.00 | > 8.00 | < 10 nM | 6.00 to 7.00 |
| C[C@H]1CCOc2c(cnn2C)-c2nccc(n2)Nc2cc3c(cn2)c(N2CC[C@H](CN(C)CCF)C2)nn31 [(169)] | < 10 nM | > 8.00 | < 10 nM | > 8.00 | > 8.00 | < 10 nM | 6.00 to 7.00 |
| CN1CCN(C(=O)C2CCN(c3nn4c5cc(ncc35)Nc3ccnc(n3)-c3cnn(C)c3OCCC4)C2)CC1 (stereo not shown) [(66)] | 100 to 1000 nM | 7.00 to 8.00 | 100 to 1000 nM | > 8.00 | > 8.00 | 100 to 1000 nM | ≤ 6.00 |
| C[C@H]1CCOc2c(cnn2C)-c2nccc(n2)Nc2cc3c(cn2)c(-c2cccc(N4CCC(N5CCOCC5)CC4)c2)nn31 [(160)] | < 10 nM | > 8.00 | 10 to 100 nM | > 8.00 | > 8.00 | < 10 nM | 6.00 to 7.00 |
| CC1CCOc2c(cnn2C)-c2nccc(n2)Nc2cc3c(cn2)c(-c2cnn(C4CC4)c2)nn31 (stereo not shown) [(64)] | 10 to 100 nM | 7.00 to 8.00 | 10 to 100 nM | > 8.00 | > 8.00 | 10 to 100 nM | 6.00 to 7.00 |
| CCn1cc(-c2nn3c4cc(ncc24)Nc2ccnc(n2)-c2cnn(C)c2OCC[C@@H]3C)cc1CN1CCOCC1 [(148)] | < 10 nM | > 8.00 | < 10 nM | > 8.00 | > 8.00 | < 10 nM | 6.00 to 7.00 |
| C[C@H]1CCOc2c(cnn2C)-c2nccc(n2)Nc2cc3c(cn2)c(-c2ccc(F)c(OCCN(C)C)c2)nn31 [(131)] | < 10 nM | > 8.00 | < 10 nM | > 8.00 | > 8.00 | < 10 nM | 6.00 to 7.00 |
| CCN(CC)C1CCN(c2cc(F)cc(-c3nn4c5cc(ncc35)Nc3ccnc(n3)-c3cnn(C)c3OCC[C@@H]4C)c2)CC1 [(141)] | 10 to 100 nM | > 8.00 | 10 to 100 nM | > 8.00 | > 8.00 | 10 to 100 nM | 6.00 to 7.00 |
